Earlier results on two substances are cited in patent US20030113270A1, “Vasoactive intestinal peptides for glaucomatous retinopathy” (priority 2001, published 2003).

Where no end group is shown, it is not given here.

The subject of this data set is neuronal survival.

In the case of Stearyl-norleucine^17-VIP [SNV], the “potency in promoting neuronal survival relative to VIP” value (more potent than VIP) was 100 fold.

As for “vasoactive intestinal polypeptide (HSDAVFTDNYTRLRKQMAVKKYLNSILN; ends and bridges not checked; UniProt P01282 125-152, looked up) [VIP, 28 amino acid neuropeptide]”, the neuroprotection result (Alzheimer's disease-relevant models) is “provide neuroprotection”.
